A short description of data set [1]: Pharmacokinetic study in SD rats (intravenous injection and intragastric administration). In kind it is in vivo, Sprague Dawley (SD) rats. Particulars: for half-life / AUC(0-inf) / MRT / bioavailability / Cmax: male, Sprague-Dawley, rat, plasma; for half-life: read-out: Half-life T1/2 (converted); for AUC(0-inf): read-out: area under curve AUC0-∞; for MRT: read-out: residence time MRT; for bioavailability: Oral (10 mg/kg) vs Injection (1 mg/kg), read-out: Bioavailability F(%); for Cmax: read-out: blood concentration Cmax. As for the experimental part:
Test Example 3. Oral Pharmacokinetic Studies of the Compounds of the Present Disclosure in SD Rats
SD rats were used as the experimental animal. The rats were intravenously injected or intragastrically administered with the compounds of the present disclosure, and the drug concentrations in plasma at different times were tested by LC/MS/MS methods, so as to research the pharmacokinetic characteristics of compounds of present disclosure in rats.
Forty-eight healthy adult Sprague Dawley (SD) male rats were purchased from Weitong Lihua Laboratory Animal Technology Co., Ltd., production license number: 11400700271077.
48 healthy adult male SD rats were fasted overnight and administered via tail vein injection (at a dosage of 1 mg/kg) and intragastrically administered (at a dosage of 10 mg/kg), respectively. The rats were fed 4 h after the administration.
About 0.2 mL of blood was collected from the jugular vein before administering and at 0.083 hours, 0.25 hours, 0.5 hours, 1 hour, 2 hours, 4 hours, 8 hours, 12 hours, and 24 hours after administering, and heparin sodium was used for anticoagulation. Blood samples were collected and placed on ice, and plasma was separated by centrifugation (centrifugation conditions: 1500 g, 10 min). The collected plasma was stored at −40° C.-20° C. before analysis.
10 μL of plasma sample was taken and 400 μL of acetonitrile (containing internal standard working solution, comprising 5 ng/mL verapamil and 50 ng/mL glibenclamide) was added. The resulting mixture was vortexed for 10 minutes, and centrifuged at 3700 rpm for 10 minutes. 70 μL of the supernatant was taken, and […] of water was added. The resulting mixture was vortexed for 10 minutes, and 2 μL of the mixture was transferred to the LC-MS/MS for sample analysis.

Data set [2] in a line: Metabolic stability in rat liver microsomes. In kind it is in vitro ADME. To be noted: for half-life at 1 µM: rat liver microsomes 0.5 mg/mL, 1 μM compound, NADPH 1 mM, read-out: Half-life/(T1/2, min). As for the experimental part:
Test Example 2. Study on the Metabolic Stability of the Compound of the Present Disclosure in Rat Liver Microsomes
The purpose of this experiment is to study the metabolic stability of the compounds of the present disclosure in rat liver microsomes.
The compounds were incubated with rat liver microsomes and coenzyme NADPH was added to initiate the reaction. At 0, 5, 15, 30 and 60 minutes, 20 μL of incubation solution was taken out and transferred to 200 μL of acetonitrile containing internal standard to stop the reaction. After protein precipitation, the resulting mixture was centrifuged at 3,700 rpm for 10 minutes, and the supernatant was taken. The supernatant was diluted 1:1 with water and analyzed by LC-MS/MS method. According to the elimination half-life of the test compound in the incubation system, the in vitro intrinsic clearance rate was calculated. Midazolam was used as the internal reference compound and all incubations were performed in duplicate in parallel.
The peak area ratio analyte/internal standard (Aanalyte/AIS) is obtained by the instrument, and the remaining percentage (% Control) is calculated from the ratio Aanalyte/AIS in the non-zero time point sample to the zero time point sample. Ln (% Control) against incubation time is plotted and a linear fit was performed.
On the technique in general: Microsomes from liver hold many membrane-bound enzymes, among them those of drug oxidation.

In another data set the target is T1, Human AT2R (Homo sapiens, UniProt P50052).
T1 construct: Terbium (Tb) donor label on the receptor; From my own knowledge, the Tag-lite format usually uses an N-terminal SNAP-tag fusion labelled with Lumi4-Tb; expressed in transfected cells
T1 sequence (P50052 1-363): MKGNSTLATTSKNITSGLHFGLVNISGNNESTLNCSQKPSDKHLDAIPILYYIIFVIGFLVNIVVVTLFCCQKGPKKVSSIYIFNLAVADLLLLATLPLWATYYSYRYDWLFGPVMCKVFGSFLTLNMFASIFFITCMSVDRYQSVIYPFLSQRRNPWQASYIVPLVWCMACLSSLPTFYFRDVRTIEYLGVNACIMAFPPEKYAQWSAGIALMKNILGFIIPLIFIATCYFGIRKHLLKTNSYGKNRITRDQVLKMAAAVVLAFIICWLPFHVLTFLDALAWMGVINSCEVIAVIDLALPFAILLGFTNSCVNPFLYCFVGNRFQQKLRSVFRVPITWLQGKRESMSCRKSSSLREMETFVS
The data set can be described thus: Antagonistic activity assay on human AT2R ligand binding (Tag-lite HTRF, Tb-labeled-AT2R cells). Particulars: AT2 ligand binding, red agonist fluorescent ligand. For orientation: Time-resolved FRET reads energy transfer from a long-lived donor to a nearby acceptor.

Setting [3] is: iv, Injection (1 mg/kg), tail vein.

Read-outs that look alike come from different tables or passages of the source.

Experimental for Human AT2R: Antagonistic Activity Assay of the Compound of the Present Disclosure on Human AT2R Ligand Binding
According to standard methods, all compounds were dissolved in dimethyl sulfoxide and prepared as 10 mM stock solutions.
(3) Each of the diluted compound in step (2) was transferred to a working plate (3657, Corning) at 160 nL/well, at 200 g, at room temperature for 1 minute;
(4) 40 μl 1×TLB was added to the above working plate, and it was centrifuged at 200 g (centrifugal force) at room temperature for 1 minute, shook on a shaker for 15 minutes to mix well, and centrifuged at 200 g (working concentration of the compound was 4×) at room temperature for 1 minute for later use;
(6) 5 mL 1×TLB was taken in a 15 mL centrifuge tube;
(7) a Tb-labeled-AT2R cells were frozen and thawed in a 37° C. water bath until the ice was completely melted (1-2 minutes);
(8) The frozen and thawed cells were rapidly transferred to the 1×TLB in step (6), and the resulting solution was mixed gently, and then centrifuged at 1200 g at room temperature for 5 minutes;
After being mixed well, the resulting mixture was placed at room temperature for late use;
(11) The reaction plate was centrifuged at 200 g at room temperature for 1 minute, and stood for 1 hour at room temperature of 25° C., and then it was centrifuged at 200 g at room temperature for 1 minute. The data was collected using Envision HTRF microplate reader, and IC50 was calculated using a nonlinear fitting formula.

What is called MRT is the average time that molecules of a dose stay in the body. Turning to `COc1ccc2c(c1OCc1ccccc1)C[C@@H](C(=O)O)N(c1nc3ccc(F)cc3o1)C2` [Example 14, (S)-5-(Benzyloxy)-2-(6-fluorobenzo[d]oxazol-2-yl)-6-methoxy-1,2,3,4-tetrahydroisoquinoline-3-carboxylic acid], in data set [1] (Oral (10 mg/kg)), the half-life is 3.6 ± 0.2 h, the AUC(0-inf) turned out to be 29600 ± 4670 ng·h/mL and the MRT is 5.3 ± 0.4 h. Also, in data set [1] (setting [3]), the AUC(0-inf) was found to be 8230 ± 1090 ng·h/mL and the MRT turned out to be 1.9 ± 0.4 h. Also, the half-life at 1 µM in data set [2] turned out to be 233 min.

Broadly, the bioavailability is the share of a dose that reaches the circulation, judged against a reference dose that is usually intravenous. As a reminder, the IC50 is the concentration that inhibits the measured activity by half. A lower IC50 goes with higher potency. In the case of `COc1ccc2c(c1OCc1ccccc1)C[C@@H](C(=O)O)N(c1nc3ccc(C#N)cc3o1)C2` [Example 15, (S)-5-(Benzyloxy)-2-(6-cyanobenzo[d]oxazol-2-yl)-6-methoxy-1,2,3,4-tetrahydroisoquinoline-3-carboxylic acid], the “Half-life T1/2” value in data set [1] (Injection (1 mg/kg), tail vein) came out at 4.2 ± 1.2 h. In addition, the bioavailability in data set [1] worked out at 47.3%. In data set [1] (Oral (10 mg/kg)), the half-life is 4.7 ± 1.3 h, the AUC(0-inf) worked out at 45400 ± 11900 ng·h/mL and the mean residence time (MRT) was 6.3 ± 1.1 h. Also, in data set [1] (setting [3]), the AUC(0-inf) is 9590 ± 579 ng·h/mL and the MRT stood at 2 ± 0.6 h. On Human AT2R, this molecule had an IC50 of 36 nM. In addition, the half-life at 1 µM in data set [2] was found to be 317 min.

Molecule `CCS(=O)(=O)NC(=O)[C@@H]1Cc2c(ccc(OC)c2COc2ccccc2)CN1c1nc2ccc(F)cc2o1` [Example 19, (S)—N-(ethylsulfonyl)-2-(6-fluorobenzo[d]oxazol-2-yl)-6-methoxy-5-(phenoxymethyl)-1,2,3,4-tetrahydroisoquinoline-3-carboxamide] returned an IC50 on Human AT2R of 25 nM. Also, the half-life at 1 µM in data set [2] came to 175 min.

As to `COc1ccc2c(c1OCc1ccccc1)C[C@@H](C(=O)O)N(c1nc3ccncc3o1)C2` [Example 22, (S)-5-(benzyloxy)-6-methoxy-2-(oxazolo[5,4-c]pyridin-2-yl)-1,2,3,4-tetrahydroisoquinoline-3-carboxylic acid], in data set [1], the bioavailability is 44.6%. For the same molecule, in data set [1] (Oral (10 mg/kg)), the half-life is 3.9 ± 0.8 h, the AUC(0-inf) is 35700 ± 6090 ng·h/mL, the Cmax was found to be 15900 ± 11000 ng/mL and the MRT amounted to 3.7 ± 0.8 h. In data set [1] (setting [3]), the half-life was 2 ± 0.6 h, the AUC(0-inf) worked out at 8020 ± 635 ng·h/mL and the mean residence time MRT is 1.2 ± 0.3 h. Moreover, in data set [2] (rat liver microsomes, 60 minutes), the “remaining original drug after incubation in rat liver microsomes” value is reported as ~100%.

As for `COc1ccc2c(c1OCc1ccc(F)cc1)C[C@@H](C(=O)O)N(c1nc3ccc(F)cc3o1)C2` [Example 29, (S)-2-(6-fluorobenzo[d]oxazol-2-yl)-5-((4-fluorobenzyl)oxy)-6-methoxy-1,2,3,4-tetrahydroisoquinoline-3-carboxylic acid], the half-life at 1 µM in data set [2] amounted to 164 min.

As for `COc1ccc(COc2c(OC)ccc3c2C[C@@H](C(=O)O)N(c2nc4ccc(F)cc4o2)C3)cc1` [Example 30, (S)-2-(6-fluorobenzo[d]oxazol-2-yl)-6-methoxy-5-((4-methoxybenzyl)oxy)-1,2,3,4-tetrahydroisoquinoline-3-carboxylic acid], the “Half-life T1/2” value in data set [1] (Injection (1 mg/kg), tail vein) came out at 2.4 ± 0.8 h. Further, in data set [1], the bioavailability was 22.1%. In data set [1] (Oral (10 mg/kg)), the half-life is 3.3 ± 0.5 h, the AUC(0-inf) worked out at 7130 ± 1630 ng·h/mL and the mean residence time MRT is 3.6 ± 0.4 h. In data set [1] (setting [3]), the AUC(0-inf) was determined as 3230 ± 659 ng·h/mL and the mean residence time (MRT) was determined as 1.2 ± 0.4 h. At Human AT2R, this molecule displayed an IC50 of 4 nM. Also, the half-life at 1 µM in data set [2] was found to be 251 min.

With `COc1ccc(COc2c(OC)ccc3c2C[C@@H](C(=O)O)N(c2nc4ccc(F)cc4o2)C3)nc1` [Example 36, (S)-2-(6-fluorobenzo[d]oxazol-2-yl)-6-methoxy-5-((5-methoxypyridin-2-yl)methoxy)-1,2,3,4-tetrahydroisoquinoline-3-carboxylic acid], the bioavailability in data set [1] was found to be 53.7%. In data set [1] (Oral (10 mg/kg)), the half-life is 3.8 ± 1 h, the AUC(0-inf) came out at 24700 ± 9400 ng·h/mL, the Cmax came to 4740 ± 662 ng/mL and the mean residence time MRT was determined as 5.4 ± 1.3 h. For the same molecule, in data set [1] (setting [3]), the half-life is 4.8 ± 2.6 h, the AUC(0-inf) was 4600 ± 240 ng·h/mL and the MRT was 2.3 ± 0.6 h. On Human AT2R, this molecule yielded an IC50 of 10 nM. Also, in data set [2], the half-life at 1 µM turned out to be 768 min.

Regarding `COc1ccc(COc2c(OC)ccc3c2C[C@@H](C(=O)O)N(c2nc4ccc(F)cc4o2)C3)cn1` [Example 39, (S)-2-(6-fluorobenzo[d]oxazol-2-yl)-6-methoxy-5-((6-methoxypyridin-3-yl)methoxy)-1,2,3,4-tetrahydroisoquinoline-3-carboxylic acid], in data set [1] (Injection (1 mg/kg), tail vein), the “Half-life T1/2” value is given as 2.3 ± 0.4 h. For the same molecule, in data set [1], the bioavailability amounted to 45.3%. In data set [1] (Oral (10 mg/kg)), the half-life is 3.6 ± 0.3 h, the AUC(0-inf) worked out at 15300 ± 2260 ng·h/mL and the MRT was found to be 4.3 ± 0.6 h. In data set [1] (setting [3]), the AUC(0-inf) was 3380 ± 405 ng·h/mL and the MRT came out at 1.9 ± 0.3 h. Besides, the half-life at 1 µM in data set [2] came to 845 min.

`COc1ccc(COc2c(OC)ccc3c2C[C@@H](C(=O)O)N(c2nc4ccc(C#N)cc4o2)C3)cc1` [Example 42, (S)-2-(6-cyanobenzo[d]oxazol-2-yl)-6-methoxy-5-((4-methoxybenzyl)oxy)-1,2,3,4-tetrahydroisoquinoline-3-carboxylic acid]: the IC50 on Human AT2R was 6 nM. Besides, in data set [2], the half-life at 1 µM is 451 min.

As for `COc1ccc2c(c1OCc1ccccc1)C[C@@H](C(=O)O)N(C(=O)C(c1ccccc1)c1ccccc1)C2` [olodanrigan, reference compound], in data set [1], the bioavailability is 12.1%. Besides, in data set [1] (Oral (10 mg/kg)), the half-life is 1.5 ± 0.3 h, the AUC(0-inf) is 1480 ± 715 ng·h/mL, the Cmax was 470 ± 197 ng/mL and the MRT stood at 2.6 ± 1 h. Besides, in data set [1] (setting [3]), the half-life was 1.6 ± 0.3 h, the AUC(0-inf) is 1230 ± 96 ng·h/mL and the MRT stood at 0.92 ± 0.16 h. For the same molecule, the half-life at 1 µM in data set [2] is 96.3 min.

For the origin of these results see US11384097B2, “Tetrahydroisoquinoline derivative, preparation method therefor and use thereof” (ZHEJIANG HISUN PHARMACEUTICAL CO., LTD., priority 2018, dated 2022).
